# Laboratory results from US11378572B2, “Therapeutic agent for immune cell migration-caused disease and method for screening same” (ZYMEDI CO., LTD., priority 2017, dated 2022).
# Entries after “also recorded” stand apart in the source; their conditions may differ.
# Tests used:
# [1] = test system: pulmonary arterial hypertension (PAH) model; assay: Monocrotaline pulmonary arterial hypertension (PAH) model, BC-KI-00053; type: in vivo, SD rats
# Experimental: In order to induce PAH in 6-week-old female SD rats (Oriental Bio), 60 mg/kg of MCT (monocrotaline), a substance that causes pulmonary hypertension through pulmonary arterial injury, was injected subcutaneously. Then animals were divided into four groups (5 animals per group), and orally administered with vehicle, sildenafil (25 mg/kg, once daily) or BC-KI-00053 (25 or 50 mg/kg, dissolved in vehicle, once daily) for 3 weeks. Vehicle was corn oil:polyethylene glycol 400:Tween 80:methyl cellulose (1%)=20:30:1:49.
# Three weeks later, rats were anesthetized with isoflurane, and blood flow and pressure were measured using an MPVS cardiovascular pressure and volume system (model name: MPVS Ultra, manufactured by Millar Instruments). Right ventricular systolic pressure (RVESP) and diastolic pressure, left ventricular systolic pressure and diastolic pressure were measured using a dedicated catheter (Mikro-Tip rat pressure catheter, manufactured by Millar Instruments). Cardiac output was measured using a perivascular blood flow probe (Transonic® Flowprobes, manufactured by […]), and experimental techniques were performed in the same manner as described in the literature: Pacher P, Nagayama T, Mukhopadhyay P, Batkai S, Kass D A. Measurement of cardiac function using pressure-volume conductance catheter technique in mice and rats. Nat Protoc 2008, 3(9):1422-34.
# IHC staining for CD68, a monocyte/macrophage marker, was performed using lung tissues from each experimental group. Collected lungs were fixed in PFA (paraformaldehyde) according to the conventional procedure, and then embedded in paraffin through water washing, dehydration, and tissue clearing processes. Lung tissue paraffin blocks of rats were cut to a thickness of […] and slides were prepared. Thereafter, staining was performed as follows. First, three times for 5 minutes xylene treatment, 2 minutes in 100% ethanol twice, 95% ethanol, 90% ethanol, 70% ethanol, DW treatment for 2 minutes in this order and washed with PBS for 5 minutes (2 times). After treatment with 0.3% H2O2 (10 minutes), slides were washed twice with PBS for 5 minutes. Then slides were soaked in 0.01M citrate buffer of pH 6.0 and microwaved for 3 minutes and 30 seconds, then antigen retrieval of cooling for 10 seconds and reheating for 10 seconds was repeated for 10 minutes followed by 20 minutes of cooling at room temperature. Afterwards, slides were washed three times for 5 minutes with PBS-T (0.03% Triton-X). After 30 minutes blocking (2% BSA & 2% goat serum in PBS) at 4° C. anti-CD68 antibody (1:200, Abcam, ab31630) was treated overnight at 4° C. After washing three times with PBS-T for 5 minutes, slides were treated with polymer-HRP anti-mouse envision kit (DAKO) for 1 hour at 4° C. After washing 3 times with PBS-T for 5 minutes, 1 ml of DAB substrate buffer and 20 ul of DAB chromogen were mixed and treated with tissue. After 10 minutes when colors developed, slides were washed twice with tertiary distilled water. Stained tissues were treated with Mayer's hematoxylin (Sigma) for 1 minute, and then treated in the order of 70% ethanol, 90% ethanol, 95% ethanol, and 100% ethanol, twice for 2 minutes for each solution. Finally, after three times of xylene treatment for 5 minutes, cover slides were mounted using a mounting solution, and observed with an optical microscope.
# KRS = target: T1, KRS (Mus musculus, UniProt Q99MN1); assay: KRS level in plasma membrane/cytosol fractions by western blot (KRS translocation to the plasma membrane); type: cell-based; settings: RAW 264.7 cells, laminin 421 1 μg/ml, 100 nM compound, 12 hours
# T1 construct: KRS, which is expressed in monocytes/macrophages and usually present in the cytoplasmic domain, translocates to the plasma membrane by LN421 treatment; endogenous in cells; host or cells: RAW 264.7
# Experimental: After dispensing RAW 264.7 cells (2×10^6 cells) in 100 mm dish and incubating for 18 hours, cells were treated with LN421 l g/ml in serum free DMEM media and harvested at 0 hour, 12 hour, 24 hour. Proteins of RAW 264.7 cells were separated into the cytosol and membrane fractions using ProteoExtract Subcellular Proteome Extraction Kit (Calbiotech, cat #539790). Obtained proteins were electrophoresed and transferred to PVDF membrane (Milipore) and blocked with 3% skim milk. KRS was then detected by western blot. Specifically, KRS polyclonal antibody (rabbit, Neomics, Co. Ltd. #NMS-01-0005) was added and reacted for 1 hour. Unbound antibody was removed and the membrane was added and reacted with anti-rabbit secondary antibody (ThermoFisher Scientific, #31460). After reacting with the secondary antibody, films were exposed in the dark room using ECL reagent as a substrate. […]
# First, in order to determine whether various KRS inhibitor candidates could exert inhibitory effect on the KRS translocation to the plasma membrane, RAW 264.7 cells (2×10^6 cells) were dispensed in 100 mm dishes and incubated for 18 hours, followed by treatment with laminin 421 1 μg/ml in serum free DMEM, and 100 nM of each of various KRS inhibitor candidates, and cells were further incubated for 12 hours. […] Afterwards, KRS was detected by western blot, and the specific method were as described in Example 3. […]
# ear skin wound model = assay: Ear skin wound model (acute inflammatory response); type: in vivo, CX3CR1-GFP mouse; settings: 100 mg/kg oral once daily, 4 days
# Experimental: To investigate the effect of the inhibitor of KRS translocation to the plasma membranes during monocyte infiltration in acute inflammatory responses, an ear skin wound model using CX3CR1-GFP mouse (Stock no. #005582, Jackson Laboratory, Bar Harbor, USA) was prepared. Monocytes, macrophages and Langerhans cells appear green in CX3R1-GFP mice. Mice were administered orally with vehicle or BC-KI-00053 (100 mg/kg, dissolved in vehicle, once daily) for a total of 4 days from 2 days prior to imaging (D−2, D−1, D−0, D+1). For a vehicle, corn oil:polyethylene glycol 400:Tween 80:methyl cellulose (1%)=20:30:1:49 was used. A 31G syringe was used to puncture the skin of the ear (time D−0) to induce acute inflammatory responses. Blood vessels were labeled using anti-CD31 antibody bound to Alexa Flour 555 (identifiable as red). Confocal microscopy was used as an imaging equipment.
# [2] = 25 or 50 mg/kg oral once daily 3 weeks
# T1 sequence (Q99MN1 whole entry, the tested form may be a part): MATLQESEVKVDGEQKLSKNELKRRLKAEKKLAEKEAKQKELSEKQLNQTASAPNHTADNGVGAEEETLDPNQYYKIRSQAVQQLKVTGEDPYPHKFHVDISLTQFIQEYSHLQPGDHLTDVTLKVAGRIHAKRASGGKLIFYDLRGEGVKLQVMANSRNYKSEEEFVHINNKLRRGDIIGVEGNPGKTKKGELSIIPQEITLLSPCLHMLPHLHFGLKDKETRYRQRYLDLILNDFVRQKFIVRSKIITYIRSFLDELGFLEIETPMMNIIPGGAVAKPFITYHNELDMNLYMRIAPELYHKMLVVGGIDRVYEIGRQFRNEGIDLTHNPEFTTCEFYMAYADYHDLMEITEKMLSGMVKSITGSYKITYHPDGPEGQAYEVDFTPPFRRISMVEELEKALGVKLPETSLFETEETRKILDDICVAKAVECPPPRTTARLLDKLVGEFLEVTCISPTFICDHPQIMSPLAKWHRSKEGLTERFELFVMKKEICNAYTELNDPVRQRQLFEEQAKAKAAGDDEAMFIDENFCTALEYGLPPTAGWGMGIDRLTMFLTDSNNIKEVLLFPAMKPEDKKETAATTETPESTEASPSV
structure (smiles),measurement,setting,value
"COc1ccc(CCN(Cc2ccc(C(=O)O)cc2)c2nc3cccc(F)c3s2)cc1 [BC-KI-00053, 4-({(7-fluorobenzo[d]thiazol-2-yl)[2-(4-methoxyphenyl)ethyl]amino}methyl)benzoic acid]",left ventricular end systolic pressure (LVESP),"[1]; 50 mg/kg, not statistically significant",increased
same,left ventricular end systolic pressure (LVESP),[1]; [2],no decrease
same,lung tissue infiltration of monocytes/macrophages (CD68 IHC),[1]; [2],clearly reduced
same,RVESP (right ventricular systolic pressure),"[1]; 25 or 50 mg/kg oral once daily 3 weeks, concentration dependent",significantly reduced
same,reduction of lung monocyte/macrophage infiltration compared with sildenafil,[1]; CD68 IHC,noticeably superior to sildenafil
same,tendency to affect systemic artery pressure compared with sildenafil,"[1]; rat, in vivo",lower tendency
same,level of KRS in the plasma membrane region,KRS,reversed; also recorded: significantly lowered
same,infiltration of monocytes and macrophages around skin wound,ear skin wound model,significantly reduced
